In data set [1] the test system is α1-acid glycoprotein (AGP). The data set is described as follows: AGP-HPAC assay (plasma protein binding). The following applies: Chiralpak-AGP, pH 7.4, 25 °C; spread is RSD in %. Format: in vitro ADME. The text has this:
The gradient retention times obtained by HSA-HPAC and AGP-HPAC assays were standardized using a calibration set of compounds with known percentage of plasma protein binding data and procedure described in our previously published study. […] This verification assured that the protein affinity indices obtained by HPAC assays depict not only unspecific generally lipophilicity-driven interactions, but also highly specific recognition forces responsible of enantioselectivity.
(§1) Stock solutions of analytes and calibration standards were prepared by dissolving 10 mg of each solute in 10 mL of methanol and kept at 4 °C. Working solutions were freshly prepared at the beginning of each day by dilution of the stock solutions to 100 μg/mL with methanol for TLC measurements or mobile phase for HPLC measurements. Before use, the samples were sonicated (Elmasonic XtraTT, Elma Schmidbauer) for 10 min at 25 °C and all working solutions were filtered through 0.2 µm polyethersulfone filters (Obrnuta faza). To protect analytes from photodegradation, the amber glass HPLC vials were used.
The binding of biologically active compounds to the plasma proteins was investigated using affinity chromatographic columns by ChromTech (Cedex, France) containing immobilized human serum albumin (HSA) (Chiralpak-HSA, length 50 mm, i.d. 4.6 mm, particle size 5 µm) and α1-acid glycoprotein (AGP) (Chiralpak-AGP, length 50 mm, i.d. 4.6 mm, particle size 5 µm) and Agilent HPLC 1100 instrument. The 20 mM potassium phosphate buffer with the pH adjusted to 7.4 and iso-propanol were used as mobile phase components A and B. Retention data were collected at 25.0 ± 0.1 °C using gradient program as follows: 0 min/0% B, 6 min/30% B, 15 min/30% B and 20 min/0% B. Injection volume was set at 10 µL and the measurements were carried out at 25.0 ± 0.1 °C with flow rate of 1.5 mL/min. The absorbance of the analytes during a chromatographic run was collected in the spectral range 200–400 nm, and the detection wavelength for each analyte was the one providing the maximum peak height.

Data set [2] in a line: C18-TLC assay (hydrophobicity). The following applies: for RM0 (TLC hydrophobicity index, intercept of linear equation): RP-18 TLC, PBS pH 7.4/methanol, extrapolated to zero organic modifier. Format: physicochemical. The text has this: In TLC measurements RF value depends on the chemical structure of analyte and its interaction with stationary and mobile phase. […] As it was expected, with increase in the percentage of organic modifier in the mobile phase the increase in RF values can be seen with accompanied decrease in RM values expressed as RM = log(1/RF - 1). Measured RF values were in the range from 0.1 to 0.7 obtained in a wide range of mobile phase organic modifier concentrations. […] Increasing concentration of the organic modifier in the mobile phase caused a slower decrease in the RM values for less hydrophobic analytes than for more hydrophobic ones. […] Increase in the hydrophobicity within curcuminoids and andrographolides is related to increase in lipophilicity determined by shake-flask method (Table 3). Stock solutions of analytes and calibration standards were prepared by dissolving 10 mg of each solute in 10 mL of methanol and kept at 4 °C. Working solutions were freshly prepared at the beginning of each day by dilution of the stock solutions to 100 μg/mL with methanol for TLC measurements or mobile phase for HPLC measurements. Before use, the samples were sonicated (Elmasonic […]) for 10 min at 25 °C and all working solutions were filtered through 0.2 μm polyethersulfone filters (Obrnuta faza). To protect analytes from photodegradation, the amber glass HPLC vials were used. Analyses were carried out using a commercially available 10 cm x 20 cm RP-18 TLC plates with fluorescent indicator (Merck KGaA). 5 μL of each working solution ([…]) was applied to the plates as 5 mm bends, 10 mm from the lower edge and 15 mm from sides of plates. The mobile phases were prepared by mixing the respective amounts of PBS (20 mM, pH 7.4) and methanol from 50% to 80% of organic solvent in 5% increment. The vertical flat-bottom chamber ([…], Switzerland) with a stainless-steel lid was saturated with mobile phase for 30 min. The plates were developed to a distance of 9 cm at room temperature, dried in the open air for 5 min and visualized under λ = 254 nm UV light (UV Cabinet with Dual Wavelength UV lamp by Camag).

Data set [3] in a line: IAM-HPLC assay (lipophilicity, affinity to phospholipids). It is filed as physicochemical. The following applies: for logk0 IAM (HPLC lipophilicity index, intercept of linear equation): IAM P.C.DD2 column, PBS pH 7.4/methanol, extrapolated to zero organic modifier. The procedure:
IAM columns provide potential to simulate membrane permeability since the amphiphilic character of phospholipid functional groups plays an important role in IAM retention especially when charged molecules are analysed.
as §1
C18-HPLC assay was carried out at Agilent HPLC 1100 and Zorbax SB C18 chromatographic column (length 250 mm.6 mm, particle size 5 µm) by Agilent Technologies, while IAM-HPLC assay was conducted using IAM P.C.DD2 chromatographic column (length 50 mm, i.d. 3.0 mm, particle size […]) by Regis Technologies (Morton Grove, IL, USA). Retention data were collected at 25.0 ± 0.1 °C using isocratic method working with mobile phases, mixing the respective amounts of PBS (10 mM, pH 7.4) and methanol from 35% to 80% of organic solvent in 5% increment. Each mobile phase was shaken vigorously and filtrated through membrane filter, no. 66, diameter 47 mm, pore size 0.45 µm by Supelco and degassed by sonication 5 min before use. The injection volume was set at 10 µL, and the measurements were carried out at flow rate 1.0 mL/min. Natrium nitrate solution (0.1 mg/mL in mobile phase) was used as the marker of dead-time. The absorbance of the analytes during a chromatographic run was collected in the spectral range of 200–400 nm, and the detection wavelength for each analyte was the one providing the maximum peak height.

Molecules are shown by their SMILES.

On to `COc1cc(/C=C/C(=O)CC(=O)/C=C/c2ccc(O)cc2)ccc1O` [Demetoxycurcumin, demetoxycurcumin], for which the “AGP Binding ± RSD (%) (n = 3)” value in data set [1] is recorded as 82.92 ± 1.15%. The “RM0 (TLC hydrophobicity index, intercept of linear equation)” value in data set [2] was “y = −0.0504 x + 4.1781”. Moreover, the “logk0 IAM (HPLC lipophilicity index, intercept of linear equation)” value in data set [3] is reported as “y = −0.0555 x + 4.4229”.
Regarding `O=C(C=Cc1ccc(O)cc1)CC(=O)C=Cc1ccc(O)cc1` [Bisdemetoxycurcumin, bisdemetoxycurcumin], in data set [1], the “AGP Binding ± RSD (%) (n = 3)” value was 83.14 ± 1.15%. In addition, the “RM0 (TLC hydrophobicity index, intercept of linear equation)” value in data set [2] is reported as “y = −0.0503 x + 4.1751”. The “logk0 IAM (HPLC lipophilicity index, intercept of linear equation)” value in data set [3] was “y = −0.0568 x + 4.6386”.
Turning to `O=C(/C=C/C=C/c1ccc2c(c1)OCO2)N1CCCCC1` [Piperine, piperine], the “AGP Binding ± RSD (%) (n = 3)” value in data set [1] is recorded as 71.98 ± 1.33%. In addition, in data set [2], the “RM0 (TLC hydrophobicity index, intercept of linear equation)” value is reported as “y = −0.0526 x + 4.4044”. The “logk0 IAM (HPLC lipophilicity index, intercept of linear equation)” value in data set [3] was “y = −0.0512 x + 3.2026”.
The corresponding values for `C=C1CC[C@@H]2[C@](C)(CO)[C@H](O)CC[C@@]2(C)[C@@H]1C/C=C1/C(=O)OC[C@H]1O` [Andrographolide, andrographolide] are 37.13 ± 1.11%, “y = −0.0302 x + 2.0908” and “y = −0.0464 x + 2.2763”.
`C=C1CC[C@@H]2[C@](C)(CO[C@@H]3O[C@H](CO)[C@@H](O)[C@H](O)[C@H]3O)CCC[C@@]2(C)[C@@H]1CCC1=CCOC1=O` [Neoandrographolide, neoandrographolide]: the “AGP Binding ± RSD (%) (n = 3)” value in data set [1] came to 64.95 ± 0.41%. Moreover, the “RM0 (TLC hydrophobicity index, intercept of linear equation)” value in data set [2] is given as “y = −0.0334 x + 2.1672”. In addition, the “difference in RM0 values versus andrographolide” value in data set [2] (compared to andrographolide) is recorded as 0.08 units. The “logk0 IAM (HPLC lipophilicity index, intercept of linear equation)” value in data set [3] was “y = −0.0620 x + 3.4572”. Also, the “difference in logk0 IAM values versus andrographolide” value in data set [3] (compared to andrographolide) was 1.18 units.

Source of the values: publication PMC9413514, “Accessing Lipophilicity and Biomimetic Chromatography Profile of Biologically Active Ingredients of Botanicals Used in the Treatment of Inflammatory Bowel Disease” (Pharmaceuticals, 2022).
